How the values were obtained:
[1] = system: Staphylococcus aureus (S. aureus) 11540 strain; assay: Standard microdilution assay, MIC against S. aureus 11540; format: cell-based; conditions: S. aureus 11540 strain, standard microdilution assay, cutoff 16 micrograms/mL, read-out: MIC S. aureus
Experimental: The in vitro activity of the compounds of the present invention can be determined. Antimicrobial testing is typically performed to determine the minimum inhibitory concentration (MIC). Minimum inhibitory concentrations (MICs) are determined by the microdilution method in a final volume of 100 μl according to protocols outlined by The Clinical and Laboratory Standards Institute (CLSI). Performance standards for reference strains are assessed within the same experimental design to maintain quality control. See, for example, Clinical Laboratory Standards Institute: Methods for dilution antimicrobial susceptibility tests for bacteria that grow aerobically M7-A8. Approved Standard-Eighth Edition. Wayne, Pa.: CLSI; December 2008; and Clinical Laboratory Standards Institute: Performance Standards for Antimicrobial Susceptibility Testing M100-S20; Approved Standard-Twentieth Edition. Wayne, Pa.: CLSI; June 2010.
The compounds of the present invention were tested for antimicrobial activity. The Compounds 1-582 were run against Eschericia coli (E. coli) strain ATCC25922 and Compounds 320-582 were run against Staphylococcus aureus (S. aureus) 11540 strain using a standard microdilution assay to determine minimum inhibitory concentrations (MICs). […] It will be recognized by one skilled in the art that the compounds can be assessed against other bacterial organisms and that the presentation of data for activity against Eschericia coli and Staphylococcus aureus are illustrative and in no way is intended to limit the scope of the present invention. The compounds of the present invention can be assayed against a range of other microorganisms depending upon the performance activity desired to be gathered. Furthermore, the “+” and “−” representation and the selection of a cutoff value of 16 micrograms/mL is also illustrative and in no way is intended to limit the scope of the present invention.

[2] = system: Eschericia coli (E. coli) strain ATCC25922; assay: Standard microdilution assay, MIC against E. coli ATCC25922; format: cell-based; conditions: Escherichia coli; E. coli strain ATCC25922, standard microdilution assay; cutoff 16 micrograms/mL; read-out: MIC E. Coli
How it was run: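 MIC determined by broth microdilution following CLSI protocols, with reference strains run in parallel for quality control. Activity scored +/− at a cutoff of 16 micrograms/mL.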

Row | MIC [1] [µg/mL] | MIC [2] [µg/mL] | Compound
1 | < 16 | < 16 | C[C@H](N)CCCc1cc(OC(F)(F)F)c(F)c(-c2cc3cn(-c4ccc(C(N)CNC(=N)N)cc4)c(=O)nc3[nH]2)c1 (some centres unmarked) [Compound 474]
2 | < 16 | < 16 | C[C@H](N)CCCc1cc(OC(F)(F)F)c(F)c(-c2cc3cn(-c4ccc([C@H]5CC(CCNC(=N)N)CN5)cc4)c(=O)nc3[nH]2)c1 (some centres unmarked) [Compound 470]
3 | < 16 | < 16 | NCC[C@@H]1CCC[C@@H](c2ccc(-n3cc4cc(-c5ccc(S(=O)(=O)NC6CCNCC6)cc5)[nH]c4nc3=O)cc2)N1 [Compound 493]
4 | > 16 | > 16 | C[C@H](N)CCCc1cc(Cl)c(F)c(-c2cc3cn(-c4ccc([C@@H]5CCC[C@@H](Cn6cn[nH]c6=O)N5)cc4)c(=O)nc3[nH]2)c1 [Compound 539]
5 | < 16 | < 16 | C[C@H](CN)COC(=O)N1CC[C@@H](c2cc3cn(-c4ccc(CNCCCNC(=N)N)cc4)c(=O)nc3[nH]2)C1 [Compound 571]
6 | > 16 | > 16 | CC(=O)NCC[C@@H]1CCC[C@@H](c2ccc(-n3cc4cc(-c5cc(CCC[C@H](C)N)cc(Cl)c5F)[nH]c4nc3=O)cc2)N1 [Compound 501]
7 | < 16 | < 16 | C[C@H](N)CCCc1cc(Cl)c(F)c(-c2cc3cn(-c4ccc(CN[C@H](CCNC(=N)N)CNc5nccs5)cc4)c(=O)nc3[nH]2)c1 [Compound 491]
8 | < 16 | < 16 | C[C@H](N)CCCN1CC[C@@H](c2cc3cn(-c4ccc([C@H](C)NCCCNC(=N)N)cc4)c(=O)nc3[nH]2)C1 [Compound 578]
9 | > 16 | > 16 | C[C@H](N)CCCc1cc(Cl)c(F)c(-c2cc3cn(-c4ccc([C@@H]5CCC[C@@H](CNCC6CCOCC6)N5)cc4)c(=O)nc3[nH]2)c1 [Compound 550]
10 | < 16 | < 16 | C[C@H](N)CCCc1cc(Cl)c(F)c(-c2cc3cn(-c4ccc(C(=N)NCC[C@H](C)N)cc4)c(=O)nc3[nH]2)c1 [Compound 512]
11 | > 16 | > 16 | C[C@H](N)CCCc1cc(Cl)c(F)c(-c2cc3cn(-c4ccc([C@@H]5CCC[C@@H](Cc6nn[nH]n6)N5)cc4)c(=O)nc3[nH]2)c1 [Compound 509]
12 | < 16 | < 16 | C[C@H](N)CCCc1cc(OC(F)(F)F)c(F)c(-c2cc3cn(-c4ccc(C(CO)CNC(=N)N)cc4)c(=O)nc3[nH]2)c1 (some centres unmarked) [Compound 480]
13 | < 16 | < 16 | C[C@H](N)CCCc1cc(Cl)c(F)c(-c2cc3cn(-c4ccc(C(=N)NCCCN)cc4)c(=O)nc3[nH]2)c1 [Compound 460]
14 | < 16 | < 16 | C[C@H](N)CCCc1cc(Cl)c(F)c(-c2cc3cn(-c4ccc([C@H]5CCO[C@H](CNC(=N)N)C5)cc4)c(=O)nc3[nH]2)c1 [Compound 561]
15 | < 16 | < 16 | C[C@H](N)CCCc1cc(Cl)c(F)c(-c2cc3cn(-c4ccc([C@@H]5CCC[C@@H](CCNC(=N)N)N5C)cc4)c(=O)nc3[nH]2)c1 [Compound 527]
16 | < 16 | < 16 | C[C@H](N)CCCc1cc(Cl)c(F)c(-c2cc3cn(-c4ccc([C@@H]5CCC[C@@H](CCC(N)=O)N5)cc4)c(=O)nc3[nH]2)c1 [Compound 511]
17 | < 16 | < 16 | C[C@H](N)CCCc1cc(Cl)c(F)c(-c2cc3cn(-c4ccc([C@@H]5COC[C@@H](CN)N5)cc4)c(=O)nc3[nH]2)c1 [Compound 464]
18 | < 16 | < 16 | C[C@H](N)CCCN1CC[C@@H](c2cc3cn(-c4ccc(CNCCCNC(=N)N)cc4)c(=O)nc3[nH]2)C1 [Compound 577]
19 | < 16 | < 16 | C[C@H](N)CCCc1cc(Cl)c(F)c(-c2cc3cn(-c4ccc([C@@H]5COC[C@@H](CNC(=N)N)N5)cc4)c(=O)nc3[nH]2)c1 [Compound 465]
20 | > 16 | > 16 | C[C@H](N)CCCc1cc(Cl)c(F)c(-c2cc3cn(-c4ccc([C@@H]5COC[C@@H](CO)N5)cc4)c(=O)nc3[nH]2)c1 [Compound 452]
21 | < 16 | < 16 | Cc1nnc(NC[C@@H](CCNC(=N)N)NCc2ccc(-n3cc4cc(-c5cc(CCC[C@H](C)N)cc(Cl)c5F)[nH]c4nc3=O)cc2)s1 [Compound 560]

Further lines, the compound ahead of its results:

Row | Compound | MIC [1] [µg/mL] | MIC [2] [µg/mL]
22 | COC[C@@H](CCN[C@@H](C)c1ccc(-n2cc3cc(-c4cc(CCC[C@H](C)N)cc(OC(F)(F)F)c4F)[nH]c3nc2=O)cc1)NC(=N)N [Compound 329] | < 16 | < 16
23 | COC[C@@H](CCN[C@@H](C)c1ccc(-n2cc3cc(-c4cc(CCC[C@H](C)N)cc(Cl)c4F)[nH]c3nc2=O)cc1)NC(=N)N [Compound 330] | < 16 | < 16
24 | C[C@H](NCCCNC(=N)N)c1ccc(-n2cc3cc(-c4cc([C@@H]5CC[C@H](C)N5)cc(Cl)c4F)[nH]c3nc2=O)cc1 [Compound 343] | < 16 | < 16
25 | C[C@H](N)CCCc1cc(OC(F)(F)F)c(F)c(-c2cc3cn(-c4ccc([C@H](C)NCC[C@@H](CCN)NC(=N)N)cc4)c(=O)nc3[nH]2)c1 [Compound 335] | < 16 | < 16
26 | C[C@H](N)CCCc1cc(OC(F)(F)F)c(F)c(-c2cc3cn(-c4ccc([C@@H]5COC[C@H](CCN)N5)cc4)c(=O)nc3[nH]2)c1 [Compound 358] | < 16 | < 16
27 | C[C@H](N)CCCc1cc(Cl)c(F)c(-c2cc3cn(-c4ccc(CN[C@@H](C)C[C@@H](CCO)NC(=N)N)cc4)c(=O)nc3[nH]2)c1 [Compound 359] | < 16 | < 16
28 | C[C@H](N)CCCc1cc(Cl)c(F)c(-c2cc3cn(-c4ccc([C@H](C)NCC[C@H](CNC(=O)CN)NC(=N)N)cc4)c(=O)nc3[nH]2)c1 [Compound 368] | < 16 | < 16
29 | C[C@H](N)CCCc1cc(Cl)c(F)c(-c2cc3cn(-c4ccc([C@H](C)NCC[C@@H](Cn5cc(CN)nn5)NC(=N)N)cc4)c(=O)nc3[nH]2)c1 [Compound 323] | < 16 | < 16
30 | C[C@H](N)CCCc1cc(Cl)c(F)c(-c2cc3cn(-c4ccc(C5(CCNC(=N)N)CNC5)cc4)c(=O)nc3[nH]2)c1 [Compound 434] | < 16 | < 16
31 | C[C@H](CCNC(=N)N)NCc1ccc(-n2cc3cc(-c4cc(CCC[C@@H](N)CO)cc(Cl)c4F)[nH]c3nc2=O)cc1 [Compound 450] | < 16 | < 16
32 | C[C@H](N)CCCc1cc(Cl)c(F)c(-c2cc3cn(-c4ccc([C@H](C)NCC[C@H](CN5CCOCC5)NC(=N)N)cc4)c(=O)nc3[nH]2)c1 [Compound 334] | < 16 | < 16
33 | C[C@H](N)CCCc1cc(Cl)c(F)c(-c2cc3cn(-c4ccc([C@H](C)NCC[C@H](CC#N)NC(=N)N)cc4)c(=O)nc3[nH]2)c1 [Compound 332] | < 16 | < 16
34 | C[C@H](N)CCCc1cc(Cl)c(F)c(-c2cc3cn(-c4ccc(CNCC[C@H](CN5CCOCC5)NC(=N)N)cc4)c(=O)nc3[nH]2)c1 [Compound 322] | < 16 | < 16
35 | C[C@H](N)CCCc1cc(Cl)c(F)c(-c2cc3cn(-c4ccc([C@H](C)NCC[C@@H](/C=C/Cl)NC(=N)N)cc4)c(=O)nc3[nH]2)c1 [Compound 389] | < 16 | < 16
36 | C[C@H](N)CCCc1cc(OC(F)(F)F)c(F)c(-c2cc3cn(-c4ccc([C@H](N)CCN)cc4)c(=O)nc3[nH]2)c1 [Compound 441] | < 16 | < 16
37 | C[C@H](N)CCCc1cc(Cl)c(F)c(-c2cc3cn(-c4ccc(CN[C@@H](C)C[C@H](CCO)NC(=N)N)cc4)c(=O)nc3[nH]2)c1 [Compound 360] | < 16 | < 16
38 | C[C@H](N)CCCc1cc(Cl)c(F)c(-c2cc3cn(-c4ccc([C@H](C)NCC[C@H](CC(N)=O)NC(=N)N)cc4)c(=O)nc3[nH]2)c1 [Compound 348] | < 16 | < 16
39 | CC[C@H](NCCCNC(=N)N)c1ccc(-n2cc3cc(-c4cc(CCC[C@@H](N)CO)cc(Cl)c4F)[nH]c3nc2=O)cc1 [Compound 432] | < 16 | < 16
40 | C=C[C@@H](C[C@H](C)NCc1ccc(-n2cc3cc(-c4cc(CCC[C@H](C)N)cc(OC(F)(F)F)c4F)[nH]c3nc2=O)cc1)NC(=N)N [Compound 337] | < 16 | < 16
41 | C=C[C@@H]1COC[C@H](c2ccc(-n3cc4cc(-c5cc(CCC[C@H](C)N)cc(Cl)c5F)[nH]c4nc3=O)cc2)N1 [Compound 374] | > 16 | > 16
42 | C[C@H](N)CCCc1cc(Cl)c(F)c(-c2cc3cn(-c4ccc([C@H]5COC[C@@H](CO)N5)cc4)c(=O)nc3[nH]2)c1 [Compound 390] | > 16 | > 16
43 | C[C@H](N)CCCc1cc(Cl)c(F)c(-c2cc3cn(-c4ccc([C@H]5CC[C@H](CCNC(=N)N)N5)cc4)c(=O)nc3[nH]2)c1 [Compound 349] | < 16 | < 16

— patent publication US10815238B2, “Antimicrobial compounds and methods of making and using the same” (BIOVERSYS AG, priority 2013, dated 2020)
